Reference: patent US8552193B2, “Alternative forms of the phosphodiesterase-4 inhibitor N-cyclopropyl-1-{3-[(1-oxidopryidin-3-yl)ethynyl]phenyl}-4-oxo-1,4-dihydro-1,8-naphthyridine-3-carboxyamide” (Merck Sharp & Dohme Corp., priority 2004, dated 2013)

Assays:
[1] = Hygroscopicity: moisture sorption isotherms on a dynamic moisture balance; assay type: physicochemical
Procedure: The moisture sorption isotherms of Form V was determined at 25° C. using a dynamic moisture balance (MB-300G) (VTI Corp., Hialeah, Fla.) calibrated for weight with 10 to 100 mg standard weights and for moisture with polyvinylpyrrolidone. The value for the weight equilibrium criterion for each relative humidity is calculated based on the weight of the sample and the drift in the balance (0.001 mg). A value of 8 min. was used for the time criteria. The moisture sorption profile of the dihydrate (Form V) (Adsorption 1/Desorption 1) after drying in vacuo for 2 h is shown in FIG. 5. Form V dehydrates on drying to a different crystal form as shown by vacuum X-ray powder diffraction in FIG. 6, losing approximately 8% by weight. For purposes of this specification, this dehydrated dihydrate is identified as […]. This form appears to be the same as that obtained by heating the sample at 125° C., but different from that obtained on drying at 60° C. in air for 24 h. The latter form is identified as Form III. The Form II (dehydrated dihydrate) is hygroscopic converting to a hemihydrate between ca. 10-40% RH and a tetrahydrate at 90% RH (FIG. 5 and FIG. 7). However, the XRPD pattern for the hemihydrate is the same as that of the dehydrated dihydrate (Form II). For purposes of this specification this hemihydrate and tetrahydrate are identified as Form II and Form IV, respectively.
Form I is non-hygroscopic with a maximum weight change of ca. 1% at 90% RH. On desorption, the tetrahydrate (Form IV) remains unchanged between 90-60% RH but converts to dihydrate (Form V) at 45-15% RH (FIG. 5 and FIG. 8).
Since the X-ray diffraction patterns of the dehydrated dihydrate and the hemihydrate are the same, we conclude that the hemihydrate is isostructural with the dehydrated dihydrate form obtained on drying in vacuo. […]

[2] = Thermal stability: heating the sample for 24 h at 60° C. in air; assay type: physicochemical
Procedure: The thermal stability of the Form V was evaluated by heating the sample for 24 h at 60° C. in air. The dihydrate (Form V) readily dehydrates within 10 min of heating losing approximately 8.5% by weight (corresponding to ca. 2 moles of water per mole base).

Row | Compound | Hygroscopicity (in words) ([1]; 25° C., dynamic moisture balance) | maximum weight change ([1]; at 90% RH, 25° C.) | weight lost on drying (dehydration to a different crystal form) ([1]; drying in vacuo for 2 h) | time of heating until dehydration [2] [min] | weight lost on heating (dehydration) [2]
1 | O=C(NC1CC1)c1cn(-c2cccc(C#Cc3ccc[n+]([O-])c3)c2)c2ncccc2c1=O [Form I, N-Cyclopropyl-1-{3-[(1-oxidopryidin-3-yl)ethynyl]phenyl}-4-oxo-1,4-dihydro-1,8-naphthyridine-3-carboxyamide] | non-hygroscopic | ca. 1% | – | – | –
2 | Compound IX Dihydrate [Dihydrate (Form V)] | – | – | approximately 8 % by weight | ≤ 10 | approximately 8.5 % by weight
